Source: paper PMC11211886 (Frontiers in Pharmacology, 2024)
Several values for one entry are separate records, joined by “and”; a condition that tells them apart may be missing. Equal entries are not always repeated. Where two headings read alike, the source gives them in different places.

Assays:
[1] = Single-dose PK and food effect in beagle dogs (IV/PO); parameters: species or system beagle dog; settings: in vivo; for AUC(0-inf): AUC0-inf
Experimental: Twelve beagle dogs (6-10 kg, male: female = 1:1) purchased from Beijing Marshall Biotechnology Co. Ltd. (Beijing, China) were enrolled in a three-period self-control cross-over study with a washout time of 1 week. […] In Period 1 and Period 2, dogs were fasted overnight until dosing. […] Approximately 1.0 mL of blood was collected per time point from the jugular vein using a 2 mL injector and transferred to a 3 mL tube that contained sodium heparin. The collected blood samples were centrifuged at 3,500 g for 5 min at 4°C to collect plasma within 30 min after sample collection. […] Animals were fasted overnight and for approximately 4 h post-dose. […] At each time point, approximately 1.0 mL of blood was collected from the femoral vein and transferred into an individual tube that contained sodium heparin. The blood samples were centrifuged at 3,500 g for 5 min at 4°C to harvest plasma.

[2] = Tissue distribution in SD rats after oral dose; parameters: species or system SD rat; settings: in vivo
Experimental: After blood collection, the rats were sacrificed, and 18 tissues, namely, brain, breast, skin, fat, testis, ovary, bladder, pancreas, skeletal muscle, heart, lung, kidney, liver, stomach, small intestine, colon, spleen, and spinal cord, were removed from the rats at designated time points. These tissues were washed with saline and dried with filter paper. […] (Cheongju-si, Korea). […] The weight of the collected samples was recorded. Samples were stored in a −20°C freezer until analysis.

[3] = Whole blood-to-plasma partition, human blood; format: in vitro ADME
Experimental: The whole blood and plasma samples were incubated at 37°C for up to 1 h. Serial samples (150 µL) were collected at different time points (0, 10, and 60 min) and transferred into new tubes. The whole blood samples were then centrifuged at 1700 g for 15 min to harvest plasma.

CYP3A4/5 [4] = assay: Reversible CYP inhibition in HLM, CYP3A4/5 (testosterone, midazolam); format: in vitro ADME, human
Experimental: The markers used to determine the activities of CYP isoforms were phenacetin O-deethylation for CYP1A2 (probe substrate: 50 µM phenacetin), bupropion hydroxylation for CYP2B6 (probe substrate: 70 µM bupropion), paclitaxel 6α-hydroxylation for CYP2C8 (probe substrate: 10 µM paclitaxel), diclofenac 4′-hydroxylation for CYP2C9 (probe substrate: 5 µM diclofenac), S-(+)-mephenytoin 4′-hydroxylation for CYP2C19 (probe substrate: 20 µM S-(+)-mephenytoin), dextromethorphan O-demethylation for CYP2D6 (probe substrate: 6 µM dextromethorphan), chlorzoxazone 6′-hydroxylation for CYP2E1 (probe substrate: 70 µM chlorzoxazone), and testosterone 6β-hydroxylation and midazolam 1′-hydroxylation for CYP3A4/5 (probe substrate: 45 µM testosterone and 5 µM midazolam). […] Alpha-naphthoflavone (0.04 µM), 2-phenyl-2-(1-piperidinyl)propane (5 µM), quercetin (1 µM), sulfaphenazole (0.5 µM), ticlopidine (4 µM), quinidine (0.2 µM), diethyldithiocarbamate (20 µM), and ketoconazole (0.05 µM) were used as positive inhibitors of CYP1A2, 2B6, 2C8, 2C9, 2C19, 2D6, 2E1, and 3A4, respectively. The vehicle control was prepared in the same composition as inhibitor solutions but free of inhibitors. The concentrations of probe substrates were close to Km values that were determined in-house and within the range recommended by the FDA ([Huang et al., 2007]). Reaction mixtures were incubated at 37°C for 5, 20, or 30 min, depending on the probe substrates of CYP isoforms. The reactions were terminated by adding cold acetonitrile containing IS, and the terminated incubation mixtures were centrifuged at 3,000 g for 10 min before LC-MS/MS analysis.

CYP3A4/5 [5] = assay: Time-dependent CYP inhibition in HLM, CYP3A4/5; format: in vitro ADME, human; settings: 10 μM, 30 min pre-incubation with NADPH
Experimental: The procedure of time-dependent CYP inhibition was similar to that used for CYP reversible inhibition, as mentioned above, except that a pre-incubation step was added. […] Another appropriate volume of the NADPH-regenerating system and probe substrate were added to initiate the CYP isoform enzyme activity test step. For this step, the incubation period was 10 min, except for CYP2B6, CYP2C8, and CYP3A4/5 (probe substrate: midazolam), which was 3 min to make sure the reaction was under initial linear rates. After incubation for the designated time periods at 37°C, the ice-cold acetonitrile containing IS was added to quench the reaction. […] (Ainactivator/[…] represents the enzyme activity remaining due to the inhibition by the diluted inactivator in the enzyme activity test step, and (Ainactivator/[…] represents the remaining enzyme activity due to pre-incubation loss plus inhibition by the diluted inactivator in the enzyme activity test step.

[6] = cited from earlier work
[7] = both sexes, beagle, dog, iv, 0.5 mg/kg
[8] = both sexes, beagle, dog, po, 0.5 mg/kg
[9] = both sexes, beagle, dog, po, 3.5 mg/kg
[10] = both sexes, beagle, dog, po, 25 mg/kg

C[C@H](Nc1ncnc(N)c1C#N)c1cc2ncc(Cl)n2nc1-c1ccccc1 [Amdizalisib]
AUC(0-t) [1, 7]: 750 ± 272 ng·h/mL | Vd [1, 7]: 2.4 ± 0.354 L/kg | AUC(0-inf) [1, 7]: 772 ± 272 ng·h/mL | MRT ([1]; both sexes, beagle, dog, iv, 0.5 mg/kg, Beagle dog, fasted, IV 0.5 mg/kg, read-out: MRT): 3.65 ± 1.29 h | half-life ([1]; both sexes, beagle, dog, iv, 0.5 mg/kg, Beagle dog, fasted, IV 0.5 mg/kg, read-out: t1/2 (converted)): 3.02 ± 1.27 h | MRT [1, 8]: 9.66 ± 6.73 h | Tmax [1, 8]: 1.92 ± 0.665 h | half-life [1, 8]: 7.22 ± 6.55 h | AUC(0-inf) [1, 8]: 359 ± 259 ng·h/mL | Cmax ([1]; both sexes, beagle, dog, po, 0.5 mg/kg, Cmax): 42.4 ± 21.8 ng/mL | AUC(0-t) [1, 9]: 5540 ng·h/mL | MRT [1, 9]: 13.8 ± 4.85 h | Tmax [1, 9]: 6.25 ± 9.11 h | AUC(0-inf) [1, 9]: 5660 ng·h/mL | half-life ([1]; both sexes, beagle, dog, po, 3.5 mg/kg, Beagle dog, fasted, PO 3.5 mg/kg, read-out: t1/2 (converted)): 6.08 ± 1.48 h | AUC(0-t) [1, 10]: 66500 ng·h/mL | AUC(0-inf) [1, 10]: 72800 ng·h/mL | MRT ([1]; both sexes, beagle, dog, po, 25 mg/kg, Beagle dog, fasted, PO 25 mg/kg, read-out: MRT): 31.8 ± 10.2 h | Tmax ([1]; both sexes, beagle, dog, po, 25 mg/kg, Beagle dog, fasted, PO 25 mg/kg, read-out: Tmax): 15 ± 10.4 h | half-life ([1]; both sexes, beagle, dog, po, 25 mg/kg, Beagle dog, fasted, PO 25 mg/kg, read-out: t1/2 (converted)): 13.9 ± 5.07 h | Tmax ([1]; both sexes, beagle, dog, po, 25 mg/kg, Beagle dog, fed, PO 25 mg/kg, read-out: Tmax): 7 ± 8.34 h | half-life ([1]; both sexes, beagle, dog, po, 25 mg/kg, Beagle dog, fed, PO 25 mg/kg, read-out: t1/2 (converted)): 17.4 ± 2.49 h | clearance ([1]; both sexes, Beagle dog, fasted, IV 0.5 mg/kg): 11.8 ± 3.61 mL/min/kg | Cmax ([1]; both sexes, Beagle dog, fasted, PO 3.5 mg/kg, read-out: Cmax): 347 ± 105 ng/mL | CL as % of the hepatic blood flow ([1]; both, beagle, dog, iv): 38.1% | Cmax ([1]; both, beagle, dog, po, 25 mg/kg): 2,159 ± 1,070 ng/mL | half-life ([2]; SD, female rat, PO 5 mg/kg, pancreas): 3.38 h | half-life ([2]; SD, male rat, PO 5 mg/kg, liver): 1.76 h | Kp ([2]; both sexes, SD, rat, po, 5 mg/kg, exposure in the intestines versus plasma): 3 to 6 | AUC(0-t) ([2]; female, SD, rat, po, 5 mg/kg): 11400 ng·h/mL | Cmax ([2]; female, SD, rat, po, 5 mg/kg): 993 ng/mL | Kp ([2]; female, SD, rat, po, 5 mg/kg, female rat, PO 5 mg/kg, colon, read-out: AUC0-t ratio of tissue/plasma): 1.52 | Cmax ([2]; female, Sprague-Dawley, rat, po, 5 mg/kg): 6950 ng/g | AUC(0-t) ([2]; male, SD, rat, po, 5 mg/kg): 1380 ng·h/mL | Cmax ([2]; male, SD, rat, po, 5 mg/kg): 394 ng/mL | Tmax ([2]; male, SD, rat, po, 5 mg/kg, Tmax): 1 h | Kp ([2]; male, SD, rat, po, 5 mg/kg, male rat, PO 5 mg/kg, bladder, read-out: AUC0-t ratio of tissue/plasma): 1.08 | Kp ([2]; male, SD, rat, po, 5 mg/kg, male rat, PO 5 mg/kg, pancreas, read-out: AUC0-t ratio of tissue/plasma): 3.97 | Cmax ([2]; male, Sprague-Dawley, rat, po, 5 mg/kg): 5080 ng/g | fuB ([3]; human blood, 0 min): 11.7% | RB ([3]; human, 0 min, 1 µM): 0.615 | fup ([3]; human, 1 µM): 0.0720 | RB ([3]; human, 10 min, 1 μM): 0.680 | fuB ([3]; human, 10 min, 1 μM): 10.6% | RB ([3]; human, 60 min, 1 μM): 0.797 | fuB ([3]; human, 60 min, 1 μM): 9.02% | enzyme activity remaining (CYP3A4/5 [4]; CYP3A4_Midazolam, 0.08 μM): 93.8% and 105% | enzyme activity remaining (CYP3A4/5 [4]; CYP3A4_Midazolam, 0.4 μM): 106% and 103% | enzyme activity remaining (CYP3A4/5 [4]; CYP3A4_Midazolam, 2 μM): 103% and 100% | enzyme activity remaining (CYP3A4/5 [4]; CYP3A4_Midazolam, 10 μM): 99.4% and 101% | enzyme activity remaining (CYP3A4/5 [4]; CYP3A4_Midazolam, 50 μM): 89.1% and 86.3% | enzyme activity remaining (CYP3A4/5 [4]; CYP3A4_Testosterone, 0.08 μM): 101% and 99.4% | enzyme activity remaining (CYP3A4/5 [4]; CYP3A4_Testosterone, 0.4 μM): 86.1% and 90.5% | enzyme activity remaining (CYP3A4/5 [4]; CYP3A4_Testosterone, 2 μM): 89.9% and 94.3% | enzyme activity remaining (CYP3A4/5 [4]; CYP3A4_Testosterone, 10 μM): 83.5% and 84.8% | enzyme activity remaining (CYP3A4/5 [4]; CYP3A4_Testosterone, 50 μM): 86.7% and 69.0% | IC50 (CYP3A4/5 [4]; human, human liver microsomes, reversible, without pre-incubation): > 50 µM | activity loss of CYP3A4/5 (CYP3A4/5 [5]; substrate midazolam): 16.9% | activity loss of CYP3A4/5 (CYP3A4/5 [5]; substrate testosterone): 11.7% | maximal unbound plasma concentration at steady state ([6]; 30 mg QD in humans): ~52.1 nM | observed human value (Vss/F) ([6]; human): 2.33 L/kg | reported human CLss/F ([6]; human): 3.25 mL/min/kg
